Laboratory results from PubChem BioAssay AID248 (DTP/NCI, 2004).
“And” between values parts separate entries of the source, which are not always exact repeats. Equal values may be shown once. Inconclusive results and toxic doses are left out. Cut-off read from the data, not from the text of the source: active = T/C of 150% or more; inactive = T/C below 125%.

Tested on: L1210 leukemia ip in BDF1 mice, survival T/C
Experiment: NCI In Vivo Anticancer Drug Screen. Data for tumor model L1210 Leukemia (intraperitoneal) in B6D2F1 (BDF1) mice
Conditions: endpoint: mean survival time, higher = longer survival
Summary of the method: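 Antitumor effect is assessed in tumor-bearing animals. Survival in the compound arm is compared with a vehicle-dosed control arm and expressed as their quotient.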

[1] = dose: 100.0 mg/kg/injection, schedule: Q04DX003 (ip), vehicle: saline with Tween-80
[2] = dose: 200.0 mg/kg/injection, schedule: Q04DX003 (ip), vehicle: saline with Tween-80
[3] = dose: 400.0 mg/kg/injection, schedule: Q04DX003 (ip), vehicle: saline with Tween-80
[4] = dose: 100.0 mg/kg/injection, schedule: Q04DX002 (ip), vehicle: Klucel (hydroxypropylcellulose) (HPC)
[5] = dose: 200.0 mg/kg/injection, schedule: Q04DX002 (ip), vehicle: Klucel (hydroxypropylcellulose) (HPC)
[6] = dose: 400.0 mg/kg/injection, schedule: Q04DX002 (ip), vehicle: Klucel (hydroxypropylcellulose) (HPC)
[7] = dose: 100.0 mg/kg/injection, schedule: Q01DX001 (ip), vehicle: saline
[8] = dose: 200.0 mg/kg/injection, schedule: Q01DX001 (ip), vehicle: saline
[9] = dose: 400.0 mg/kg/injection, schedule: Q01DX001 (ip), vehicle: saline
[10] = dose: 100.0 mg/kg/injection, schedule: Q04DX003 (ip), vehicle: Klucel (hydroxypropylcellulose) (HPC)
[11] = dose: 200.0 mg/kg/injection, schedule: Q04DX003 (ip), vehicle: Klucel (hydroxypropylcellulose) (HPC)
[12] = dose: 400.0 mg/kg/injection, schedule: Q04DX003 (ip), vehicle: Klucel (hydroxypropylcellulose) (HPC)
[13] = dose: 100.0 mg/kg/injection, schedule: Q01DX009 (ip), vehicle: saline with Tween-80
[14] = dose: 200.0 mg/kg/injection, schedule: Q01DX009 (ip), vehicle: saline with Tween-80
[15] = dose: 100.0 mg/kg/injection, schedule: Q04DX003 (ip), vehicle: saline
[16] = dose: 200.0 mg/kg/injection, schedule: Q04DX003 (ip), vehicle: saline
[17] = dose: 400.0 mg/kg/injection, schedule: Q04DX003 (ip), vehicle: saline
[18] = dose: 50.0 mg/kg/injection, schedule: Q01DX009 (ip), vehicle: Klucel (hydroxypropylcellulose) (HPC)
[19] = dose: 400.0 mg/kg/injection, schedule: Q01DX009 (ip), vehicle: saline with Tween-80
[20] = dose: 100.0 mg/kg/injection, schedule: Q01DX009 (ip), vehicle: Klucel (hydroxypropylcellulose) (HPC)
[21] = dose: 200.0 mg/kg/injection, schedule: Q01DX009 (ip), vehicle: Klucel (hydroxypropylcellulose) (HPC)
[22] = dose: 400.0 mg/kg/injection, schedule: Q01DX009 (ip), vehicle: Klucel (hydroxypropylcellulose) (HPC)
[23] = dose: 25.0 mg/kg/injection, schedule: Q01DX009 (ip), vehicle: saline with Tween-80
[24] = dose: 50.0 mg/kg/injection, schedule: Q01DX009 (ip), vehicle: saline with Tween-80
[25] = dose: 100.0 mg/kg/injection, schedule: Q01DX001 (ip), vehicle: Klucel (hydroxypropylcellulose) (HPC)
[26] = dose: 200.0 mg/kg/injection, schedule: Q01DX001 (ip), vehicle: Klucel (hydroxypropylcellulose) (HPC)
[27] = dose: 400.0 mg/kg/injection, schedule: Q01DX001 (ip), vehicle: Klucel (hydroxypropylcellulose) (HPC)

Measured: T/C

CCC(=O)Nc1cccc(OC(=O)NC(C)CC)c1 (configuration not stated)
inactive: [1] 93 % of control | [2] 97 % of control | [3] 92 % of control

COc1ccc(-n2cccc2C(N)=O)cc1OC
inactive: [4] 103 % of control | [5] 100 % of control | [6] 90 % of control

Cc1ccc(N=C2CCCCC2Nc2ccc(C)cc2)cc1.[Cl][Zn][Cl] (configuration not stated)
inactive: [7] 98 % of control | [8] 101 % of control | [9] 104 % of control

CCOC(CCl)[N+](C)(C)C (configuration not stated)
inactive: dose: 100.0 mg/kg/injection, schedule: Q04DX002 (ip), vehicle: saline 91 % of control

CC(=O)C(CCS(C)(=O)=O)(CCS(C)(=O)=O)c1ccccc1
inactive: [10] 112 % of control | [11] 108 % of control | [12] 100 % of control

O=C(Cc1cccc2ccccc12)N/N=C/c1ccc(Cl)cc1Cl
inactive: [13] 96 % of control | [14] 93 % of control

O=c1[nH]ccn2cncc12
inactive: [15] 93 % of control | [16] 103 % of control | [17] 106 % of control

NNc1nc2ccccc2s1
inactive: dose: 6.25 mg/kg/injection, schedule: Q01DX009 (ip), vehicle: Klucel (hydroxypropylcellulose) (HPC) 90 % of control | dose: 12.5 mg/kg/injection, schedule: Q01DX009 (ip), vehicle: Klucel (hydroxypropylcellulose) (HPC) 100 % of control | dose: 25.0 mg/kg/injection, schedule: Q01DX009 (ip), vehicle: Klucel (hydroxypropylcellulose) (HPC) 94 % of control | [18] 91 % of control

Cc1sc2ccc(Cl)cc2[n+]1CCC(=O)O
inactive: [13] 101 % of control | [1] 111 % of control | [14] 96 % of control | [2] 108 % of control | [19] 97 % of control | [3] 95 % of control

Cc1sc([N+](=O)[O-])cc1[N+](=O)[O-]
inactive: [18] 103 % of control | [20] 92 % of control | [10] 97 % of control | [11] 96 % of control

CCOC(=O)C(C)(C)CSC(C)(C)C(=O)OCC
inactive: [15] 110 % of control | [16] 101 % of control | [17] 110 % of control

CSc1nc(Cl)cc(/N=C/N(C)C)n1
inactive: [1] 95 % of control | [2] 115 % of control | [3] 111 % of control

O=C(NCCBr)Nc1ccccc1C(F)(F)F
inactive: [20] 103 % of control | [10] 112 % of control | [21] 105 % of control | [11] 103 % of control | [22] 107 % of control | [12] 93 % of control

CCCCCCCCOc1ccc(/C=N\N=C\c2ccc(OCCCCCCCC)cc2)cc1
inactive: [13] 105 % of control | [14] 91 % of control | [19] 92 % of control

Cc1ccc(S(=O)(=O)On2cccc2C#N)cc1
inactive: [23] 102 % of control | [24] 94 % of control and 96 % of control | [13] 98 % of control | [14] 97 % of control and 102 % of control

N#C/C(=C/c1cc([N+](=O)[O-])c(O)c([N+](=O)[O-])c1)C(N)=O
inactive: dose: 75.0 mg/kg/injection, schedule: Q01DX001 (ip), vehicle: saline 96 % of control | dose: 150.0 mg/kg/injection, schedule: Q01DX001 (ip), vehicle: saline 98 % of control | dose: 300.0 mg/kg/injection, schedule: Q01DX001 (ip), vehicle: saline 95 % of control

CCCc1nnnn1C12CC3CC(CC(C3)C1)C2
inactive: [7] 102 % of control | [8] 100 % of control | [9] 93 % of control

COC(=O)CCc1c(C)[nH]c(C(=O)OC(C)(C)C)c1C
inactive: [25] 97 % of control | [10] 93 % of control | [26] 101 % of control | [11] 98 % of control | [27] 93 % of control | [12] 95 % of control

COC(=O)C(O)(C#CC(C)(C)C)c1ccccc1 (configuration not stated)
inactive: dose: 100.0 mg/kg/injection, schedule: Q01DX001 (ip), vehicle: other 86 % of control | dose: 200.0 mg/kg/injection, schedule: Q01DX001 (ip), vehicle: other 91 % of control | dose: 400.0 mg/kg/injection, schedule: Q01DX001 (ip), vehicle: other 96 % of control

Nc1ccc(NC(=O)c2ccc3ccccc3c2O)c(Cl)c1
inactive: [10] 94 % of control | [11] 97 % of control | [12] 94 % of control

CN(C)C(=S)N1C(=O)C2C3CCC(O3)C2C1=O (configuration not stated)
inactive: dose: 3.13 mg/kg/injection, schedule: Q01DX009 (ip), vehicle: saline with Tween-80 102 % of control | dose: 6.25 mg/kg/injection, schedule: Q01DX009 (ip), vehicle: saline with Tween-80 98 % of control | dose: 6.25 mg/kg/injection, schedule: Q04DX002 (ip), vehicle: saline with Tween-80 106 % of control | dose: 12.5 mg/kg/injection, schedule: Q04DX002 (ip), vehicle: saline with Tween-80 87 % of control

O=C1NC2(CCCCCC2)C(=O)N1CN1CCOCC1
inactive: [25] 98 % of control | [26] 101 % of control | [27] 104 % of control

COc1ccc([I+]c2ccccc2)cc1
inactive: dose: 6.25 mg/kg/injection, schedule: Q04DX003 (ip), vehicle: saline 98 % of control | dose: 9.0 mg/kg/injection, schedule: Q01DX009 (ip), vehicle: saline 104 % of control | dose: 12.5 mg/kg/injection, schedule: Q04DX003 (ip), vehicle: saline 101 % of control | dose: 25.0 mg/kg/injection, schedule: Q01DX001 (ip), vehicle: saline with Tween-80 102 % of control | [23] 102 % of control | dose: 25.0 mg/kg/injection, schedule: Q04DX003 (ip), vehicle: saline with Tween-80 98 % of control | dose: 25.0 mg/kg/injection, schedule: Q04DX003 (ip), vehicle: saline 109 % of control | dose: 36.0 mg/kg/injection, schedule: Q04DX003 (ip), vehicle: saline 95 % of control | dose: 50.0 mg/kg/injection, schedule: Q01DX001 (ip), vehicle: saline with Tween-80 102 % of control | [24] 111 % of control | dose: 50.0 mg/kg/injection, schedule: Q04DX003 (ip), vehicle: saline with Tween-80 93 % of control | dose: 100.0 mg/kg/injection, schedule: Q01DX001 (ip), vehicle: saline with Tween-80 98 % of control | [13] 105 % of control | [1] 97 % of control

CCCCc1c(N)nc(=S)[nH]c1C(=O)O
inactive: dose: 75.0 mg/kg/injection, schedule: Q01DX009 (ip), vehicle: Klucel (hydroxypropylcellulose) (HPC) 98 % of control | [10] 95 % of control | dose: 150.0 mg/kg/injection, schedule: Q01DX009 (ip), vehicle: Klucel (hydroxypropylcellulose) (HPC) 106 % of control | [11] 98 % of control and 91 % of control | dose: 300.0 mg/kg/injection, schedule: Q01DX009 (ip), vehicle: Klucel (hydroxypropylcellulose) (HPC) 108 % of control | [12] 96 % of control

Ic1ccc([I+]c2ccc(I)cc2)cc1
inactive: [4] 106 % of control | [5] 106 % of control | [6] 106 % of control

Cc1cc(Br)ccc1NNS(=O)(=O)c1cccc(N)c1
inactive: [25] 98 % of control | [10] 91 % of control | [26] 107 % of control | [11] 97 % of control | [27] 91 % of control | [12] 107 % of control

N#CC[CH2][Sn]([Br])([Br])[CH2]CC#N
inactive: dose: 12.5 mg/kg/injection, schedule: Q01DX009 (ip), vehicle: saline 103 % of control | dose: 50.0 mg/kg/injection, schedule: Q01DX009 (ip), vehicle: saline 96 % of control

COC(=O)C(=O)CC(=O)c1ccc(OC)cc1
inactive: [4] 103 % of control | [5] 95 % of control | [6] 100 % of control

Cc1ccc(S(=O)(=O)Nc2cc(Cl)c(I)c(Cl)c2)cc1
inactive: [20] 96 % of control | [21] 102 % of control | [22] 100 % of control

O=C(Nc1ccc(F)cc1)Nc1nccs1
inactive: [25] 88 % of control | [20] 98 % of control and 102 % of control | [10] 102 % of control | [26] 96 % of control | [21] 101 % of control and 117 % of control | [11] 111 % of control | [27] 93 % of control | [22] 98 % of control | [12] 113 % of control
